# No end group written: not given here.
# Key:
# S. aureus ATCC 29213 [1] = test: Salt and heat sensitivity (MIC); assay type: cell-based, Staphylococcus aureus; design: key to MIC, FeCl3 / MIC, Mix / MIC, Control / MIC, NaCl / MIC, KCl / MIC, NH4Cl / MIC, MgCl2 / MIC, ZnCl2 / MIC, CaCl2: MIC in µM (peptide serial dilutions 0.5–128 µM); MIC, Heat (100 °C): unit not given beside the values; conditions: for MIC, FeCl3: 4 mM FeCl3; for MIC, Mix: mixture medium with all salts in physiological concentrations; for MIC, Heat (100 °C): peptide incubated at 100 °C for 1 h
# Protocol: (§1) Minimum inhibitory concentration (MIC) was determined using the modified standard microtiter dilution method as described previously. The bacteria were incubated overnight at 37 °C, […] at 220 rpm and transferred to new nutrient broth (MHB) until the logarithmic phase of growth. The bacteria were then diluted into 10^5 colony forming units (10^5 CFU/mL) in MHB. The peptides were dissolved and diluted in 0.01% acetic acid and 0.2% bovine serum albumin (BSA). Briefly, serial diluted (0.5–128 µM) peptides were added to sterile 96-well plates in a 50-μL volume of bacteria in MHB mixed with 50 µL. […] The results are expressed as an average of the MICs at least three times.
# (§2) The incubation to test for thermal stability occurred at 100 °C for 1 h. After these treatments, the procedures were the same as described above for the MIC assay.
# E. coli ATCC 25922 [2] = test: Salt and heat sensitivity (MIC); assay type: cell-based, Escherichia coli; design: key to MIC, Control / MIC, NaCl / MIC, KCl / MIC, NH4Cl / MIC, MgCl2 / MIC, ZnCl2 / MIC, FeCl3 / MIC, CaCl2 / MIC, Mix: MIC in µM (peptide serial dilutions 0.5–128 µM); MIC, Heat (100 °C): unit not given beside the values; conditions: for MIC, MgCl2: 1 mM MgCl2; for MIC, CaCl2: 2.5 mM CaCl2; for MIC, FeCl3: 4 mM FeCl3; for MIC, KCl: 4.5 mM KCl; for MIC, NH4Cl: 6 mM NH4Cl; for MIC, ZnCl2: 8 mM ZnCl2; for MIC, NaCl: 150 mM NaCl; for MIC, Control: absence of physiological salts; for MIC, Mix: mixture medium with all salts in physiological concentrations; for MIC, Heat (100 °C): peptide incubated at 100 °C for 1 h
# Protocol: as §1, §2
# [3] = system: E. coli UB1005 inner membrane; test: Inner membrane permeability (ONPG hydrolysis); assay type: cell-based, Escherichia coli; conditions: 1× MIC, absorbance 420 nm, 0–30 min
# Protocol: The inner membrane permeability activity against E. coli bacteria was determined by the uptake of ONPG. E. coli UB 1005 cells were cultured to mid-log phase in MHB medium containing 2% lactose at 37 °C, and harvested by centrifugation at 3000× g for 5 min. After washing twice, the cells were diluted to an OD600 of 0.05 with buffer (10 mM PBS, pH 7.4) containing 1.5 mM ONPG. […] The value of OD reflected the ONPG flowing into the cells was measured at 420 nm from 0 to 30 min every two min.
# [4] = system: human red blood cells (hRBC); test: Hemolytic activity; assay type: cell-based; conditions: 37 °C; for concentration causing 5% hemolysis (minimal hemolytic concentration, MHC): fresh human erythrocytes in PBS pH 7.4, 1 h, absorbance 570 nm, maximal concentration 128 µM, averages of three independent experiments
# Protocol: The hemolytic activity of the peptides was evaluated by measuring the amount of released hemoglobin by the lysis of erythrocytes. The measurement was as previously described. Human red blood cells (hRBC) were obtained from healthy donors by the ethics committee of the Northeast Agricultural University Hospital. The fresh blood cells were washed 2–3 times in PBS (pH 7.4) and centrifuged at 1000× g for 5 min at 4 °C, then resuspended in PBS. Briefly, 50 μL of hRBC solution was incubated with 50 μL of different concentrations of each peptide dissolved in PBS in a 96-well microtiter plate. After incubation for 1 h at 37 °C, the mixtures were centrifuged at 1000× g for 5 min at 4 °C and then the supernatant was transferred to another 96-well microtiter plate. The release of hemoglobin was monitored by measurement of the absorbance at 570 nm using a multimode microplate reader (SpectraMax M5, Molecular Devices, San Francisco, CA, USA). The concentration causing 5% hemolysis was defined as the minimal hemolytic concentration (MHC). The control samples for 0% and 100% hemolysis consisted of hRBC in PBS (Ablank) only and in 0.1% Triton X-100 (Atriton), respectively. The percent hemolysis was calculated according to the following equation: % Hemolysis = [(Asample − Ablank)/(Atriton − Ablank)] × 100
# S. aureus ATCC 29213 [5] = assay type: cell-based, Staphylococcus aureus
# Protocol: as §1
# (§3) E. coli ATCC 25,922, S. typhimurium ATCC 7731, S. typhimurium ATCC 14028, P. aeruginosa ATCC 27853, B. subtilis CMCC 63501, S. aureus ATCC 29213, S. epidermidis ATCC 12228 and E. faecalis ATCC 29212 were obtained from the College of Veterinary Medicine, Northeast Agricultural University (Harbin, China). E. coli UB1005 was kindly provided by Qingsheng Qi (State Key Laboratory of Microbial Technology, Shandong University, Jinan, China). P. Aeruginosa PAO1 was kindly provided by Wengong Yu (State Key Laboratory of School of Medicine and Pharmacy, Ocean University of China, Qingdao, China).
# B. subtilis CMCC 63501 = assay type: cell-based, Bacillus subtilis
# Protocol: as §1, §3
# E. coli ATCC 25922 [6] = assay type: cell-based, Escherichia coli
# Protocol: as §1, §3
# E. coli UB 1005 = assay type: cell-based, Escherichia coli
# Protocol: as §1, §3
# P. aeruginosa ATCC 27853 = assay type: cell-based, Pseudomonas aeruginosa
# Protocol: as §1, §3
# P. aeruginosa PAO1 = assay type: cell-based, Pseudomonas aeruginosa
# Protocol: as §1, §3
# S. faecalis ATCC 29212 = assay type: cell-based
# Protocol: as §1, §3
# [7] = system: Gram-negative and Gram-positive bacteria; test: MIC across the bacterial panel; assay type: cell-based
# Protocol: as §1, §3
# S. epidermidis ATCC12228 = assay type: cell-based, Staphylococcus epidermidis
# Protocol: as §1, §3
# S. typhimurium ATCC 7731 = assay type: cell-based, Salmonella typhimurium
# Protocol: as §1, §3
# [8] = system: S. typhimurium ATCC 14028; assay type: cell-based, Salmonella typhimurium
# Protocol: as §1, §3
molecule,measurement,setting,value
"CC[C@H](C)[C@H](NC(=O)CN)C(=O)NCC(=O)N[C@@H](C)C(=O)N[C@H](C(=O)N[C@@H](CC(C)C)C(=O)N[C@@H](CCCCN)C(=O)N[C@H](C(=O)N[C@@H](CC(C)C)C(=O)N[C@H](C(=O)N[C@H](C(=O)NCC(=O)N[C@@H](CC(C)C)C(=O)N1CCC[C@H]1C(=O)N[C@@H](C)C(=O)N[C@@H](CC(C)C)C(=O)N[C@H](C(=O)N[C@@H](CO)C(=O)N[C@@H](Cc1c[nH]c2ccccc12)C(=O)N[C@H](C(=O)N[C@@H](CCCCN)C(=O)N[C@@H](CCCNC(=N)N)C(=O)N[C@@H](CCCCN)C(=O)N[C@@H](CCCNC(=N)N)C(=O)N[C@@H](CCC(N)=O)C(=O)N[C@@H](CCC(N)=O)C(N)=O)[C@@H](C)CC)[C@@H](C)CC)[C@@H](C)O)[C@@H](C)O)C(C)C)C(C)C [ME26, melittin]","MIC, MgCl2",S. aureus ATCC 29213 [1]; 1 mM MgCl2,2
same,"MIC, CaCl2",S. aureus ATCC 29213 [1]; 2.5 mM CaCl2,4
same,"MIC, FeCl3",S. aureus ATCC 29213 [1],2
same,"MIC, KCl",S. aureus ATCC 29213 [1]; 4.5 mM KCl,4
same,"MIC, NH4Cl",S. aureus ATCC 29213 [1]; 6 mM NH4Cl,2
same,"MIC, ZnCl2",S. aureus ATCC 29213 [1]; 8 mM ZnCl2,2
same,"MIC, NaCl",S. aureus ATCC 29213 [1]; 150 mM NaCl,4
same,"MIC, Control",S. aureus ATCC 29213 [1]; absence of physiological salts,8
same,"MIC, Mix",S. aureus ATCC 29213 [1],4
same,"MIC, Heat (100 °C)",S. aureus ATCC 29213 [1],8
same,"MIC, MgCl2",E. coli ATCC 25922 [2],4
same,"MIC, CaCl2",E. coli ATCC 25922 [2],2
same,"MIC, FeCl3",E. coli ATCC 25922 [2],2
same,"MIC, KCl",E. coli ATCC 25922 [2],2
same,"MIC, NH4Cl",E. coli ATCC 25922 [2],2
same,"MIC, ZnCl2",E. coli ATCC 25922 [2],4
same,"MIC, NaCl",E. coli ATCC 25922 [2],4
same,"MIC, Control",E. coli ATCC 25922 [2],2
same,"MIC, Mix",E. coli ATCC 25922 [2],4
same,"MIC, Heat (100 °C)",E. coli ATCC 25922 [2],2
same,"inner membrane permeability (ONPG hydrolysis, in words)",[3],highest ability for inner membrane permeability
same,concentration giving complete hemolysis,"[4]; human erythrocytes, 1 h",greater than 4 µM
AKKFGKAFVGEIM-NH2 [MA],MIC,S. aureus ATCC 29213 [5],>64 µM
same,MIC,B. subtilis CMCC 63501,>64 µM
same,MIC,E. coli ATCC 25922 [6],32 µM
same,MIC,E. coli UB 1005,>64 µM
same,MIC,P. aeruginosa ATCC 27853,>64 µM
same,MIC,P. aeruginosa PAO1,>64 µM
same,MIC,S. faecalis ATCC 29212,>64 µM
same,minimum inhibitory concentration,[7],greater than 64 μM
same,MIC,S. epidermidis ATCC12228,>64 µM
same,MIC,S. typhimurium ATCC 7731,>64 µM
same,MIC,[8],>64 µM
FKRIVQRIKDFLR-NH2 [LL],MIC,S. aureus ATCC 29213 [5],16 µM
same,MIC,B. subtilis CMCC 63501,16 µM
same,MIC,E. coli ATCC 25922 [6],16 µM
same,MIC,E. coli UB 1005,16 µM
same,MIC,P. aeruginosa ATCC 27853,8 µM
same,MIC,P. aeruginosa PAO1,16 µM
same,MIC,S. faecalis ATCC 29212,32 µM
same,MIC,S. epidermidis ATCC12228,8 µM
same,MIC,S. typhimurium ATCC 7731,16 µM
same,MIC,[8],32 µM
FRIRVRV-NH2 [FV7],MIC,S. aureus ATCC 29213 [5],64 µM
same,MIC,B. subtilis CMCC 63501,16 µM
same,MIC,E. coli ATCC 25922 [6],16 µM
same,MIC,E. coli UB 1005,32 µM
same,MIC,P. aeruginosa ATCC 27853,16 µM
same,MIC,P. aeruginosa PAO1,32 µM
same,MIC,S. faecalis ATCC 29212,32 µM
same,MIC,S. epidermidis ATCC12228,32 µM
same,MIC,S. typhimurium ATCC 7731,32 µM
same,MIC,[8],16 µM
same,hemolysis,"[4]; at 128 µM, human erythrocytes, 1 h",approximately 15%
same,"concentration causing 5% hemolysis (minimal hemolytic concentration, MHC)",[4],4 µM
FRIRVRVAKKFGKAFVGEIM-NH2 [FV-MA],MIC,S. aureus ATCC 29213 [5],8 µM
same,MIC,B. subtilis CMCC 63501,4 µM
same,MIC,E. coli ATCC 25922 [6],8 µM
same,MIC,E. coli UB 1005,8 µM
same,MIC,P. aeruginosa ATCC 27853,8 µM
same,MIC,P. aeruginosa PAO1,2 µM
same,MIC,S. faecalis ATCC 29212,16 µM
same,MIC,S. epidermidis ATCC12228,8 µM
same,MIC,S. typhimurium ATCC 7731,4 µM
same,MIC,[8],4 µM
same,hemolytic activity (in words),"[4]; human erythrocytes, 1 h, up to 128 µM",higher hemolytic activity at each concentration when compared to FV7
FRIRVRVFKRIVQRIKDFLR-NH2 [FV-LL],MIC,S. aureus ATCC 29213 [5],2 µM
same,MIC,B. subtilis CMCC 63501,4 µM
same,MIC,E. coli ATCC 25922 [6],1 µM
same,MIC,E. coli UB 1005,4 µM
same,MIC,P. aeruginosa ATCC 27853,4 µM
same,MIC,P. aeruginosa PAO1,2 µM
same,MIC,S. faecalis ATCC 29212,4 µM
same,MIC,S. epidermidis ATCC12228,1 µM
same,MIC,S. typhimurium ATCC 7731,2 µM
same,MIC,[8],2 µM
same,"concentration causing 5% hemolysis (minimal hemolytic concentration, MHC)",[4],> 128 µM
FRIRVRVKWKLFKKI-NH2 [FV-CE],"MIC, FeCl3",S. aureus ATCC 29213 [1],4
same,"MIC, Mix",S. aureus ATCC 29213 [1],4
same,"MIC, Heat (100 °C)",S. aureus ATCC 29213 [1],4
same,MIC,S. aureus ATCC 29213 [5],8 µM
same,MIC,B. subtilis CMCC 63501,1 µM
same,MIC,E. coli ATCC 25922 [6],2 µM
same,MIC,E. coli UB 1005,2 µM
same,MIC,P. aeruginosa ATCC 27853,2 µM
same,MIC,P. aeruginosa PAO1,2 µM
same,MIC,S. faecalis ATCC 29212,1 µM
same,"MIC, MgCl2",E. coli ATCC 25922 [2],2
same,"MIC, CaCl2",E. coli ATCC 25922 [2],2
same,"MIC, FeCl3",E. coli ATCC 25922 [2],4
same,"MIC, KCl",E. coli ATCC 25922 [2],2
same,"MIC, NH4Cl",E. coli ATCC 25922 [2],2
same,"MIC, ZnCl2",E. coli ATCC 25922 [2],2
same,"MIC, NaCl",E. coli ATCC 25922 [2],2
same,"MIC, Control",E. coli ATCC 25922 [2],2
same,"MIC, Mix",E. coli ATCC 25922 [2],2
same,"MIC, Heat (100 °C)",E. coli ATCC 25922 [2],2
same,MIC,S. epidermidis ATCC12228,0.5 µM
same,MIC,S. typhimurium ATCC 7731,4 µM
same,MIC,[8],4 µM
same,"concentration causing 5% hemolysis (minimal hemolytic concentration, MHC)",[4],> 128 µM
KWKLFKKI-NH2 [CE],MIC,S. aureus ATCC 29213 [5],>64 µM
same,MIC,B. subtilis CMCC 63501,>64 µM
same,MIC,E. coli ATCC 25922 [6],64 µM
same,MIC,E. coli UB 1005,>64 µM
same,MIC,P. aeruginosa ATCC 27853,>64 µM
same,MIC,P. aeruginosa PAO1,>64 µM
same,MIC,S. faecalis ATCC 29212,>64 µM
same,minimum inhibitory concentration,[7],greater than 64 μM
same,MIC,S. epidermidis ATCC12228,>64 µM
same,MIC,S. typhimurium ATCC 7731,>64 µM
same,MIC,[8],>64 µM
